Earlier results as cited in patent publication US20230270709A1, “ANTIVIRAL PHARMACEUTICAL COMPOSITION FOR TOPICAL ADMINISTRATION” (Christian-Albrechts-Universitat Zu Kiel, priority 2020, published 2023).
Counter-ions that a name gives are not always drawn.

Columns and labels:
[1] = molecular target: transmembrane protease, serine 2 (TMPRSS2) (Homo sapiens, UniProt O15393); conditions: Zhou et al., Antiviral Research 116 (2015)
SARS-CoV = conditions: pathogenic animal model for SARS-CoV infection; Zhou et al. 2015
SARS-CoV-2 = conditions: Hoffmann et al. 2020

Chain of transmembrane protease, serine 2 (TMPRSS2) (O15393 whole entry): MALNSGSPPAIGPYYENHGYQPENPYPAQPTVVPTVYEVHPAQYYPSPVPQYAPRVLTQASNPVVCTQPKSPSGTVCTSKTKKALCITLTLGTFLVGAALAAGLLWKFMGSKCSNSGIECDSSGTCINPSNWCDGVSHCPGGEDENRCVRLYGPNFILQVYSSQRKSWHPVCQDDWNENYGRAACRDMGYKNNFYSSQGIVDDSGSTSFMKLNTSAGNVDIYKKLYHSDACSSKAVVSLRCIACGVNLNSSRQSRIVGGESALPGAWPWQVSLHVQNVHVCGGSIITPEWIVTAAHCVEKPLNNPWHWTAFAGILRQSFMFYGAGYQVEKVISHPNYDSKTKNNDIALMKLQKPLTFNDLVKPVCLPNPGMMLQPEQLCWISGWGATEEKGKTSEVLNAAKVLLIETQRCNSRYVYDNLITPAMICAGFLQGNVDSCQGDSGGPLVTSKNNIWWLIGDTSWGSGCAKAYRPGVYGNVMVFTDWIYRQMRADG

Structure (SMILES) | inhibition of TMPRSS2 [1] | antiviral activity in animal model (SARS-CoV) | effect on SARS-CoV-2 infections of lung cells (SARS-CoV-2)
CN(C)C(=O)COC(=O)Cc1ccc(OC(=O)c2ccc(NC(=N)N)cc2)cc1 [camostat] | inhibit | display antiviral activity | 
N=C(N)c1ccc2cc(OC(=O)c3ccc(N=C(N)N)cc3)ccc2c1 [nafamostat mesylate] |  |  | reduce SARS-CoV-2 infections of lung cells
CN(C)C(=O)COC(=O)Cc1ccc(OC(=O)c2ccc(NC(=N)N)cc2)cc1 [camostat mesylate] |  |  | reduce SARS-CoV-2 infections of lung cells
